# According to paper PMC10461224, “Development of an Affinity-Based Probe to Profile Endogenous Human Adenosine A3 Receptor Expression” (Journal of Medicinal Chemistry, 2023):
# Legend:
# hA3AR [1] = target: T1, hA3AR (Homo sapiens, UniProt P0DMS8); assay: Confocal microscopy labeling on CHO cells, click to TAMRA-N3; type: cell-based; conditions: 50 nM, 60 min, versus vehicle, PSB-11 pre-incubation and CHO-K1
# T1 construct: expressed in transfected cells; host or cells: CHO cells (CHOhA3AR), gift of Prof; K.N. Klotz, University of Würzburg; used as membrane fractions or live cells
# T1 sequence (P0DMS8 1-318): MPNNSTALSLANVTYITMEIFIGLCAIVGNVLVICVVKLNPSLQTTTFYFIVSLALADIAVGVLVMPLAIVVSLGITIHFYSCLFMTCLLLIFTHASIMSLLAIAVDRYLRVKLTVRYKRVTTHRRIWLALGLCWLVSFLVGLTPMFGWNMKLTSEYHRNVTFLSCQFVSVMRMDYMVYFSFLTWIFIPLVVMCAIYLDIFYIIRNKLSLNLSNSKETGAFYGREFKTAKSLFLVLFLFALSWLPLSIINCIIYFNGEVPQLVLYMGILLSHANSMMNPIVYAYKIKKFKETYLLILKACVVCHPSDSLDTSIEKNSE
# Protocol: CHOhA3AR and CHO-K1 cells were cultured in a 96-well plate. Upon reaching a confluency of about 90%, the medium was replaced by medium containing PSB-11 (final concentration: 1 μM) or 1% DMSO (control) and the cells were pre-incubated for 30 min (37 °C and 5% CO2). The medium was then replaced with medium containing 9 (final concentration: 50 nM) or 1% DMSO (vehicle), and the cells were incubated for 60 min (37 °C and 5% CO2). The cells were washed with PBS to remove unbound probe and afterward fixed using a 4% PFA in 10% formalin solution (15 min, rt). The remaining fixative was removed by washing with PBS and subsequently with 20 mM glycine in PBS. The cells were permeabilized by incubation in 0.1% saponin in PBS (10 min, rt). Remaining saponin was removed by a PBS wash, and the cells were stored at 4 °C until further usage. At the day of imaging, PBS was removed and the cells were incubated for 1 h in freshly prepared click mix (100 μL 100 mM CuSO4 in MilliQ, 100 μL 1 M NaAsc in MilliQ, 100 μL […] in MilliQ, 9.66 mL HEPES pH 7.4, and 40 μL 1 mM TAMRA-N3 in DMSO, added in the respective order). […]
# CellProfiler (version 2.2.0) was used to create a binary image of the DAPI channel and to propagate the cytoplasmic area based on the DAPI binary. An overlay of the binary cytoplasm/TAMRA channel was generated to quantify per segmented pixel the TAMRA intensity. […]
# hA3AR [2] = target: T1, hA3AR; assay: SDS-PAGE labeling on live CHO cells; type: cell-based; conditions: 50 nM, 1 h, 37 °C; signal reduced by PSB-11
# Protocol: CHOhA3AR and CHO-K1 cells were cultured as mentioned above. Cells were grown to ∼90% confluency in 10 cm φ plates. 10 plates were used per condition per experiment. The medium was removed, and the competing ligand (PSB-11, unless noted otherwise) in medium (final concentration: 1 μM) was added. Cells were incubated for 1 h (37 °C, 5% CO2). The medium was removed, and the affinity-based probe (final concentration: 50 nM in medium) was added. The cells were incubated for 1 h (37 °C, 5% CO2) and washed with PBS to get rid of all the non-bound probes. Subsequently, the membranes were prepared and collected using the procedure as described above. Membrane aliquots were diluted to a concentration of 1 μg/μL, and 20 μL was taken per sample. PNGase (0.5 μL, 5 U) or MilliQ was added, and the samples were incubated for 1 h at rt. Next, the click mix was freshly prepared by adding together 5 parts 100 mM CuSO4 in MilliQ, 3 parts 1 M NaAsc in MilliQ, 1 part 100 mM THPTA in MilliQ, and 1 part 100 μM Cy5-N3 in DMSO. […] In-gel fluorescence was measured on a Bio-Rad Universal Hood III using Cy3 (605/50 filter) or Cy5 (695/55 filter) settings. […]
# Gel images were analyzed using Image Lab software version 6.0.1 (Bio-Rad). Quantification was done in the following manner: the area under the curve (AUC) of the bands was selected using the ‘Lane Profile’ tab and the adjusted volumes were taken. […]
smiles,measurement,setting,value
"C#CCOc1ccn2c(c1)nc1c2c(=O)n(CCC)c(=O)n1CCCNC(=O)c1ccc(S(=O)(=O)F)cc1 [compound 9, 4-((3-(2,4-Dioxo-8-(prop-2-yn-1-yloxy)-3-propyl-3,4-dihydropyrido[2,1-f]purin-1(2H)-yl)propyl)carbamoyl)benzenesulfonyl fluoride]",integrated TAMRA fluorescence intensity,hA3AR [1],significant increase in intensity
same,labeling of hA3AR on live CHO cells (SDS-PAGE),hA3AR [2],binds and labels the hA3AR on live cells
